# Results from ChEMBL document CHEMBL3217552, “Novel benzothiazole derivatives with a broad antifungal spectrum: design, synthesis and structureactivity relationships” (2013).
# The source made the active and inactive calls. The rule behind the calls is not given here.
# How the values were obtained:
# Candida parapsilosis = assay: Antifungal activity against Candida parapsilosis after 24 hrs by serial dilution method; format: functional; conditions: Lodderomyces parapsilosis
# Trichophyton rubrum = assay: Antifungal activity against Trichophyton rubrum after 72 hrs by serial dilution method; format: functional
# Candida albicans [1] = assay: Antifungal activity against Candida albicans after 24 hrs by serial dilution method; format: functional
# Nannizzia gypsea = assay: Antifungal activity against Microsporum gypseum after 72 hrs by serial dilution method; format: functional
# Nakaseomyces glabratus = assay: Antifungal activity against Candida glabrata after 24 hrs by serial dilution method; format: functional
# Cryptococcus neoformans = assay: Antifungal activity against Cryptococcus neoformans after 72 hrs by serial dilution method; format: functional
# Candida albicans [2] = assay: Antifungal activity against Candida albicans SC5314 infected in Caenorhabditis elegans assessed as nematode survival at 16 ug/ml after 144 hrs by serial dilution method; format: functional; conditions: SC5314, 144 h
# Candida albicans [3] = assay: Antifungal activity against Candida albicans SC5314 infected in Caenorhabditis elegans assessed as nematode survival at 32 ug/ml after 144 hrs by serial dilution method; format: functional, organism-based
SMILES,MIC80 (Candida parapsilosis) [µg/mL],MIC80 (Trichophyton rubrum) [µg/mL],MIC80 (Candida albicans [1]) [µg/mL],MIC80 (Nannizzia gypsea) [µg/mL],MIC80 (Nakaseomyces glabratus) [µg/mL],MIC80 (Cryptococcus neoformans) [µg/mL],survival at 16 µg/mL (Candida albicans [2]) [%],Activity (Candida albicans [3])
O=C(Nc1nc2ccc(NC(=O)[C@@H]3CCC[C@H](NCc4ccc5ccccc5n4)C3)cc2s1)C1CCCC1 (relative stereo),> 64,> 64,> 64,> 64,> 64,> 64,,
O=C(Nc1ccc2nc(NC(=O)[C@@H]3CCC[C@H](NCc4cnc5ccccc5c4)C3)sc2c1)C1CCCC1 (relative stereo),> 64,> 64,> 64,64,> 64,> 64,,
O=C(Nc1nc(-c2ccc(NC(=O)[C@H]3CCC[C@@H](NCc4ccc5ccccc5c4)C3)cc2)cs1)C1CCCC1 (relative stereo),> 64,32,> 64,0.125,> 64,> 64,,
O=C(Nc1ccc2nc(NC(=O)[C@@H]3CCC[C@H](NCc4ccnc5ccccc45)C3)sc2c1)C1CCCC1 (relative stereo),> 64,> 64,> 64,> 64,16,16,,
O=C(Nc1ccc2nc(NC(=O)[C@@H]3CCC[C@H](NCc4ccc5ccccc5n4)C3)sc2c1)C1CCCC1 (relative stereo),> 64,> 64,> 64,64,> 64,> 64,,
O=C(Nc1nc2ccc(NC(=O)[C@@H]3CCC[C@H](NCc4ccc5ccccc5n4)C3)cc2o1)C1CCCC1 (relative stereo),> 64,> 64,> 64,1,> 64,> 64,,
O=C(Nc1nc2ccc(NC(=O)[C@@H]3CCC[C@H](NCc4cnc5ccccc5c4)C3)cc2s1)C1CCCC1,8,8,8,> 64,> 64,4,,
O=C(Nc1nc2ccc(NC(=O)[C@@H]3CCC[C@H](NCc4cc5ccccc5nc4Cl)C3)cc2s1)C1CCCC1 (relative stereo),> 64,> 64,> 64,> 64,> 64,> 64,,
O=C(Nc1nc2ccc(NC(=O)[C@@H]3CCC[C@H](NCc4cccc5cccnc45)C3)cc2s1)C1CCCC1 (relative stereo),> 64,> 64,> 64,> 64,> 64,> 64,,
COc1ccc2cc(CN[C@H]3CCC[C@@H](C(=O)Nc4ccc5nc(NC(=O)C6CCCC6)sc5c4)C3)ccc2c1 (relative stereo),> 64,> 64,> 64,> 64,> 64,> 64,,
COc1ccc2ccccc2c1CN[C@H]1CCC[C@@H](C(=O)Nc2ccc3nc(NC(=O)C4CCCC4)sc3c2)C1 (relative stereo),> 64,64,> 64,64,> 64,> 64,,
O=C(Nc1ccc2nc(NC(=O)[C@@H]3CCC[C@H](NCc4ccc5ccccc5c4)C3)sc2c1)C1CCCC1 (relative stereo),> 64,32,8,32,16,32,,
O=C(Nc1nc2ccc(NC(=O)[C@@H]3CCC[C@H](NCc4ccc5ccccc5c4)C3)cc2s1)C1CCCC1 (racemic),> 64,> 64,4,> 64,> 64,> 64,,
O=C(Nc1nc2ccc(NC(=O)[C@@H]3CCC[C@H](NCc4ccc5ccccc5c4Br)C3)cc2s1)C1CCCC1 (relative stereo),> 64,64,> 64,64,> 64,> 64,,
COc1ccc(CN[C@H]2CCC[C@@H](C(=O)Nc3ccc4nc(NC(=O)C5CCCC5)sc4c3)C2)c2ccccc12 (relative stereo),> 64,> 64,> 64,> 64,> 64,> 64,,
O=C(Nc1nc2ccc(NC(=O)[C@@H]3CCC[C@H](NCC4CNc5ccccc5C4)C3)cc2s1)C1CCCC1 (relative stereo),> 64,> 64,32,64,> 64,> 64,,
O=C(Nc1nc2ccc(NC(=O)[C@@H]3CCC[C@H](NCC4CCc5ncccc5C4)C3)cc2s1)C1CCCC1 (relative stereo),64,> 64,16,> 64,> 64,> 64,,
O=C(Nc1nc2ccc(NC(=O)[C@@H]3CCC[C@H](NCc4ccc5ncccc5c4)C3)cc2s1)C1CCCC1 (relative stereo),4,4,4,> 64,0.125,4,60,
O=C(Nc1nc2ccc(NC(=O)[C@@H]3CCC[C@H](NCc4ccc5ccccc5c4)C3)cc2o1)C1CCCC1 (relative stereo),> 64,> 64,> 64,1,> 64,> 64,,
CCOc1ccc2ccccc2c1CN[C@H]1CCC[C@@H](C(=O)Nc2ccc3nc(NC(=O)C4CCCC4)sc3c2)C1 (relative stereo),> 64,64,> 64,64,> 64,> 64,,
OC(Cn1cncn1)(Cn1cncn1)c1ccc(F)cc1F [FLUCONAZOLE],2,4,0.5,32,2,16,,Active
O=C(Nc1nc2ccc(NC(=O)[C@@H]3CCC[C@H](NCc4ccnc5ccccc45)C3)cc2s1)C1CCCC1 (relative stereo),> 64,> 64,> 64,16,> 64,> 64,,
O=C(Nc1nc2ccc(NC(=O)[C@@H]3CCC[C@H](NCc4cccc5ccccc45)C3)cc2s1)C1CCCC1 (relative stereo),> 64,> 64,> 64,> 64,> 64,> 64,,
O=C(Nc1ccc2nc(NC(=O)[C@@H]3CCC[C@H](NCc4ccc5ncccc5c4)C3)sc2c1)C1CCCC1 (relative stereo),> 64,> 64,> 64,32,> 64,> 64,,
